# Values quoted from earlier work as cited in US20070128633A1, “Cell-free protein expression systems and methods of use thereof” (ChemBridge Research Laboratories, Inc., priority 2005, published 2007).
# What was measured:
# [1] = system: KIT variants containing 2 out of these 6 mutations; settings: KIT variants with 2 of 6 catalytic domain point mutations found in seminomas; Kemmer et al. (2004)
# [2] = target: KIT active site mutation D816V (Homo sapiens, UniProt P10721, D816V); settings: sporadic adult human mastocytosis, Ma et al. (2002)
# streptavidin = streptavidin (Streptomyces avidinii, UniProt P22629); settings: tag fused to the C- or N-termini of a recombinant protein; Skerra and Schmidt (2000)
# Sequence of KIT active site mutation D816V (P10721 26-976 D816V): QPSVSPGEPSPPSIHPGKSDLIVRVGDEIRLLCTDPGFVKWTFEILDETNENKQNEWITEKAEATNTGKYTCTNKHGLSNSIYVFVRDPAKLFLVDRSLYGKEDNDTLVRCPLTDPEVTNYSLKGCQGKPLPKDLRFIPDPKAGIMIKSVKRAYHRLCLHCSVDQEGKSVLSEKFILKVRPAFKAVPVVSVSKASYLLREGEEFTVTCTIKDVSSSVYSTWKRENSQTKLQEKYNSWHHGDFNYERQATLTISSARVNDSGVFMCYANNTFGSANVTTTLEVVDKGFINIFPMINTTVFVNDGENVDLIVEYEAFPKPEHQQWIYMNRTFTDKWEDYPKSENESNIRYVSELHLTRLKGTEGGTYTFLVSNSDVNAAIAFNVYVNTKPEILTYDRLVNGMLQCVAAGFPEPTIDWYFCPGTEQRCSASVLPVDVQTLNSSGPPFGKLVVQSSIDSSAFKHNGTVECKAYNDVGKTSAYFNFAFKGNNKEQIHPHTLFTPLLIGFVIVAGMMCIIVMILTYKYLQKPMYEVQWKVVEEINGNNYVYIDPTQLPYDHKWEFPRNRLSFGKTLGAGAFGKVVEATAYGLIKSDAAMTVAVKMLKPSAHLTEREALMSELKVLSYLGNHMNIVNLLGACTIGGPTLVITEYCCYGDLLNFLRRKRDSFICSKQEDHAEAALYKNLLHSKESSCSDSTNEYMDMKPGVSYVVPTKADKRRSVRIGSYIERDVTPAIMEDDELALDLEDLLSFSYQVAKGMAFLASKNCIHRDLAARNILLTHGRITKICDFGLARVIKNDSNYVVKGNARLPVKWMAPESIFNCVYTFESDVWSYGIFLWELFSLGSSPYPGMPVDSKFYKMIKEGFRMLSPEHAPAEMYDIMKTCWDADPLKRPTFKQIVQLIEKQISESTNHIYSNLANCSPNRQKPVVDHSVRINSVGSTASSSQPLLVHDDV
response to imatinib treatment [2],Compound,inhibition of KIT variants [1],Kd (streptavidin)
resistance,Cc1ccc(NC(=O)c2ccc(CN3CCN(C)CC3)cc2)cc1Nc1nccc(-c2cccnc2)n1 [imatinib],not inhibited,–
–,WSHPQFEK [Strep-Tag II],–,18 µM
